Several values for one entry are separate records, joined by “and”; a condition that tells them apart may be missing. Identical values can stand only once. Like-named read-outs stand apart in the source and are kept apart here.
Test system: ciliary muscle
Assay: Atropine inhibition of acetylcholine-induced ciliary muscle contraction (Magnus tube)
Format: cell-based, rabbit
Settings: for inhibition at 1 µM: Oryctolagus cuniculus, atropine 10^-6 mol/L vs control; for Tension of Contraction (g), Tables 2 and 6 / Tension of Contraction (g), Tables 4 and 8 / Tension of Contraction (g), Tables 3 and 7: individual enucleated organs 1-2
Description: The ciliary muscle obtained in EXAMPLE 1 was suspended in a Magnus tube filled with Krebs-Henseleit solution bubbled through with a mixed gas of 5% carbon dioxide and 95% oxygen. Krebs-Henseleit solution was prepared as follows. A-solution, B-solution, C-solution, water and D-solution were mixed at a ratio of 1:1:1:6:1 in the following order. First A-solution, B-solution and C-solution were mixed in the above ratio followed by the addition of distilled water. After rigorous mixing, D-solution was added. The solution thus prepared was shielded from light and used after heating at 37 degrees C.
The sample in the Magnus tube was suspended at a loading weight of 0.4 g using a tension transducer (Isometric Transducer, FD Pick-up TB-611 T type, made by Nihon Kohden Corporation, Tokyo, Japan). After equilibration for 30 minutes, acetylcholine (made by SIGMA, St. Louis, Mo.) at a final concentration of 10-4 mol/L was added for the first stimulation. After tension reached a plateau value, the sample was washed with a buffer until the tension returned to the baseline. This procedure was repeated nine times.
The tension of the sample upon each stimulation was recorded by the data collection software (VISUAL DESIGNER ver. 2.3, made by INTELLIGENT INSTRUMENTATION, Tucson, Ariz.) via the tension transducer, an input box (JD-112S type, made by Nihon Kohden Corporation), an amplifier for pressure strain (AP-621G type, made by Nihon Kohden Corporation) and an A.D. conversion board (PCI-20428W, made by INTELLIGENT INSTRUMENTATION).
The net tension was calculated by subtracting the baseline tension from the tension observed after stimulation, and this was defined as the contraction rate. The first net tension, i.e., tension at the first stimulation—baseline tension, was set as a contraction rate of 100%.
In addition, the sample in the Magnus tube was treated with atropine at a final concentration of 10-6 mol/L and subjected to acetylcholine stimulation as described above, in order to confirm whether the tension of the sample was in fact due to stimulation by acetylcholine.

[1] = atropine 10^-6 mol/L, baseline tension data set
[2] = atropine 10^-6 mol/L, net tension data set
[3] = atropine 10^-6 mol/L, tension after acetylcholine stimulation data set

CN1[C@@H]2CC[C@H]1C[C@@H](OC(=O)C(CO)c1ccccc1)C2 (stereo partly shown) [atropine]
inhibition at 1 µM (baseline tension data set, read-out: Inhibition Value (%), Table 6): 84.6% | inhibition at 1 µM (net tension data set, read-out: Inhibition Value (%), Table 8): 75.6% | inhibition at 1 µM (tension after acetylcholine stimulation data set, read-out: Inhibition Value (%), Table 7): 82% | contraction of the ciliary muscle elicited by acetylcholine (atropine 10^-6 mol/L): inhibited | Tension of Contraction, Average ± standard deviation, Table 6 [1]: 0.0245 ± 0.0024 g | Tension of Contraction (g), Tables 2 and 6 [1]: 0.0228 g and 0.0262 g | Tension of Contraction (g), Tables 2 and 6 (atropine 10^-6 mol/L, baseline tension data set, listed as Artopine): 0.0228 g and 0.0262 g | Tension of Contraction, Average ± standard deviation, Table 8 [2]: 0.0156 ± 0.0076 g | Tension of Contraction (g), Tables 4 and 8 [2]: 0.0102 g and 0.0210 g | Tension of Contraction (g), Tables 4 and 8 (atropine 10^-6 mol/L, net tension data set, listed as Artopine): 0.0102 g and 0.0210 g | Tension of Contraction, Average ± standard deviation, Table 7 [3]: 0.0401 ± 0.0100 g | Tension of Contraction (g), Tables 3 and 7 [3]: 0.0330 g and 0.0472 g | Tension of Contraction (g), Tables 3 and 7 (atropine 10^-6 mol/L, tension after acetylcholine stimulation data set, listed as Artopine): 0.0330 g and 0.0472 g
